Experimental data reported in ChEMBL document CHEMBL3885861, “Open TG-GATES”.

Species: Rattus norvegicus
Assay: Open TG-GATES - Regimen: Single
Type: toxicity, organism-based, Sprague-Dawley
Set-up: regimen Single, gender Male, age 6 weeks
Conditions: in vivo, po, 30 mg/kg, route gavage, dose level Low; for APTT / Bas / Eos / Fbg / Hb / Ht / Lym / MCH / MCHC / MCV / Mono / Neu / PT / Plat / RBC / Ret / WBC: tissue Blood; for KIDNEY_L / KIDNEY_R / KIDNEY_TOTAL: tissue Kidney; for LIVER: tissue Liver; for A/G / ALP / ALT / AST / BUN / CRE / Ca / Cl / DBIL / GLC / IP / K / LDH / Na / PL / RALB / TBIL / TC / TG / TP / gamma-GTP: tissue Plasma

In the case of `CCOC(=O)C(C)(C)Oc1ccc(Cl)cc1` [CLOFIBRATE], the TERMINAL_BW (3 h) is reported as 228.4 g, the APTT (3 h) is reported as 19.1 s and the Bas (3 h) is reported as 0%. For the same molecule, the Eos (3 h) was 1%, the Fbg (3 h) was 234.4 mg/dL and the Hb (3 h) was 13.3 g/dL. For the same molecule, the Ht (3 h) was 38.4%, the Lym (3 h) was 80.4% and the MCH (3 h) was 21.8 pg. The MCHC (3 h) was 34.6%, the MCV (3 h) was 62.9 fL and the Mono (3 h) was 2.6%. It also gave a Neu (3 h) of 15.6%, a PT (3 h) of 12.3 s and a Plat (3 h) of 121.4 x10_4/uL. For the same molecule, the RBC (3 h) was 611.2 x10_4/ul, the Ret (3 h) was 7.5% and the WBC (3 h) was 87.8 x10_2/uL. For the same molecule, the KIDNEY_L (3 h) was 1 g, the KIDNEY_R (3 h) was 1 g and the KIDNEY_TOTAL (3 h) was 2 g. For the same molecule, the LIVER (3 h) was 10.5 g, the A/G (3 h) was 1.6 and the ALP (3 h) was 1038.6 IU/L. It also gave an ALT (3 h) of 38.8 IU/L, an AST (3 h) of 71 IU/L and a BUN (3 h) of 12.2 mg/dL. For the same molecule, the CRE (3 h) was 0.3 mg/dL, the Ca (3 h) was 11.2 mg/dL and the Cl (3 h) was 102.4 meq/L. The DBIL (3 h) was 0.4 mg/dL, the GLC (3 h) was 199.2 mg/dL and the IP (3 h) was 9 mg/dL. The K (3 h) was 3.9 meq/L, the LDH (3 h) was 199.6 IU/L and the Na (3 h) was 139.6 meq/L. The PL (3 h) was 178.4 mg/dL, the RALB (3 h) was 3.4 g/dL and the TBIL (3 h) was 0.4 mg/dL. The TC (3 h) was 84 mg/dL, the TG (3 h) was 194 mg/dL and the TP (3 h) was 5.6 g/dL. The gamma-GTP (3 h) was 1.2 IU/L, the TERMINAL_BW (6 h) was 224.5 g and the APTT (6 h) was 18.6 s. For the same molecule, the Bas (6 h) was 0%, the Eos (6 h) was 1% and the Fbg (6 h) was 230 mg/dL. For the same molecule, the Hb (6 h) was 13.5 g/dL, the Ht (6 h) was 38.9% and the Lym (6 h) was 78.4%. The MCH (6 h) was 21.7 pg, the MCHC (6 h) was 34.7% and the MCV (6 h) was 62.5 fL. For the same molecule, the Mono (6 h) was 2.6%, the Neu (6 h) was 17.2% and the PT (6 h) was 12.3 s. The Plat (6 h) was 125.7 x10_4/uL, the RBC (6 h) was 623.2 x10_4/ul and the Ret (6 h) was 7.3%. It also gave a WBC (6 h) of 115.7 x10_2/uL, a KIDNEY_L (6 h) of 1 g and a KIDNEY_R (6 h) of 1 g. For the same molecule, the KIDNEY_TOTAL (6 h) was 1.9 g, the LIVER (6 h) was 9.8 g and the A/G (6 h) was 1.6. For the same molecule, the ALP (6 h) was 1119.8 IU/L, the ALT (6 h) was 35.4 IU/L and the AST (6 h) was 69.2 IU/L. The BUN (6 h) was 7.8 mg/dL, the CRE (6 h) was 0.4 mg/dL and the Ca (6 h) was 10.7 mg/dL. For the same molecule, the Cl (6 h) was 103.8 meq/L, the DBIL (6 h) was 0.1 mg/dL and the GLC (6 h) was 194.6 mg/dL. The IP (6 h) was 9 mg/dL, the K (6 h) was 4 meq/L and the LDH (6 h) was 273 IU/L. It also gave a Na (6 h) of 140.8 meq/L, a PL (6 h) of 143.6 mg/dL and an RALB (6 h) of 3.5 g/dL. For the same molecule, the TBIL (6 h) was 0.2 mg/dL, the TC (6 h) was 73 mg/dL and the TG (6 h) was 88 mg/dL. For the same molecule, the TP (6 h) was 5.7 g/dL, the gamma-GTP (6 h) was 1.4 IU/L and the TERMINAL_BW (9 h) was 223 g. It also gave an APTT (9 h) of 18.8 s, a Bas (9 h) of 0% and an Eos (9 h) of 1%. For the same molecule, the Fbg (9 h) was 228.4 mg/dL, the Hb (9 h) was 13.2 g/dL and the Ht (9 h) was 37.7%. For the same molecule, the Lym (9 h) was 79.8%, the MCH (9 h) was 21.5 pg and the MCHC (9 h) was 34.9%. For the same molecule, the MCV (9 h) was 61.7 fL, the Mono (9 h) was 3.2% and the Neu (9 h) was 15.8%. It also gave a PT (9 h) of 12.8 s, a Plat (9 h) of 137.4 x10_4/uL and an RBC (9 h) of 611.4 x10_4/ul. For the same molecule, the Ret (9 h) was 7.4%, the WBC (9 h) was 101.8 x10_2/uL and the KIDNEY_L (9 h) was 1 g. The KIDNEY_R (9 h) was 1 g, the KIDNEY_TOTAL (9 h) was 1.9 g and the LIVER (9 h) was 9.1 g. The A/G (9 h) was 1.6, the ALP (9 h) was 814.2 IU/L and the ALT (9 h) was 27.6 IU/L. The AST (9 h) was 61.4 IU/L, the BUN (9 h) was 11.2 mg/dL and the CRE (9 h) was 0.4 mg/dL. The Ca (9 h) was 10.5 mg/dL, the Cl (9 h) was 101.6 meq/L and the DBIL (9 h) was 0.076 mg/dL. For the same molecule, the GLC (9 h) was 216 mg/dL, the IP (9 h) was 11.1 mg/dL and the K (9 h) was 3.9 meq/L. For the same molecule, the LDH (9 h) was 238.8 IU/L, the Na (9 h) was 140.2 meq/L and the PL (9 h) was 127.2 mg/dL. For the same molecule, the RALB (9 h) was 3.4 g/dL, the TBIL (9 h) was 0.1 mg/dL and the TC (9 h) was 65.2 mg/dL. It also gave a TG (9 h) of 54.2 mg/dL, a TP (9 h) of 5.5 g/dL and a gamma-GTP (9 h) of 1 IU/L. The TERMINAL_BW (24 h) was 238.3 g, the APTT (24 h) was 20.6 s and the Bas (24 h) was 0%. The Eos (24 h) was 1%, the Fbg (24 h) was 215.6 mg/dL and the Hb (24 h) was 13.5 g/dL. The Ht (24 h) was 39%, the Lym (24 h) was 82% and the MCH (24 h) was 21.8 pg. It also gave an MCHC (24 h) of 34.8%, an MCV (24 h) of 62.7 fL and a Mono (24 h) of 2.8%. It also gave a Neu (24 h) of 13.6%, a PT (24 h) of 12.6 s and a Plat (24 h) of 123.8 x10_4/uL. For the same molecule, the RBC (24 h) was 620.8 x10_4/ul, the Ret (24 h) was 6.6% and the WBC (24 h) was 103.6 x10_2/uL. For the same molecule, the KIDNEY_L (24 h) was 1 g, the KIDNEY_R (24 h) was 1 g and the KIDNEY_TOTAL (24 h) was 2 g. It also gave an LIVER (24 h) of 11.1 g, an A/G (24 h) of 1.7 and an ALP (24 h) of 1108.2 IU/L. The ALT (24 h) was 34.2 IU/L, the AST (24 h) was 66.4 IU/L and the BUN (24 h) was 13.8 mg/dL. The CRE (24 h) was 0.4 mg/dL, the Ca (24 h) was 10.8 mg/dL and the Cl (24 h) was 102.8 meq/L. The DBIL (24 h) was 0.084 mg/dL, the GLC (24 h) was 203.8 mg/dL and the IP (24 h) was 7.1 mg/dL. It also gave a K (24 h) of 3.9 meq/L, an LDH (24 h) of 243 IU/L and a Na (24 h) of 140.6 meq/L. It also gave a PL (24 h) of 141 mg/dL, an RALB (24 h) of 3.4 g/dL and a TBIL (24 h) of 0.1 mg/dL. For the same molecule, the TC (24 h) was 65 mg/dL, the TG (24 h) was 110.4 mg/dL and the TP (24 h) was 5.5 g/dL. It also gave a gamma-GTP (24 h) of 0.6 IU/L.
